Earlier results in patent US20080161402A1, “Targeting the Reverse Mode of the Na+/Ca2+ Exchanger For the Treatment of Neurodegenerative Conditions” (ALLERGAN, INC., priority 2004, published 2008).

Test system: Na+/Ca2+ exchanger
Conditions: variety of cell types including neurons; reverse vs forward mode

In the case of `CS(=O)(=O)O.N=C(N)SCCc1ccc(OCc2ccc([N+](=O)[O-])cc2)cc1` [KB-R743, 2-[2-[4-(4-nitorbenzyloxy)phenyl]ethyl]isothiourea methanesulfonte], the “mode selectivity of Na+/Ca2+ exchanger block” value is given as “preferentially block the reverse mode”.
